One compound from BindingDB's records for PubMed 34138567 (National Clinical Research Center For Geriatrics, 2021) can be followed below.

pIC50: −log10 of the molar value.

Assay [1] can be described thus: Inhibition of PI3Kdelta in conA-stimulated primary human T cell proliferation incubated for 1 hr by CellTiter-glo luminescent assay. Background: In ATP-based viability assays light output follows the ATP content of the culture.
The nature of assay [2]: Inhibition of PI3Kdelta in anti-FceRI-stimulated human Basophil cells degranulation incubated for 30 mins.

The pIC50 is −log10 of the IC50, conventionally taken in molar units.

Take `C[C@H]1CC[C@@H](c2nc3cccc(Cl)c3c(=O)n2-c2cccc(F)c2)N1c1ncnc2[nH]cnc12`: the values for the pIC50 in assay [1] and in assay [2] were 7.68 and 8.09, respectively.
